The source of these data is patent US6172102A, “Pyrrole derivatives and medicinal composition” (Nippon Shinyaku Co., Ltd., priority 1995, dated 2001).

This test has as its system urinary bladder. The test can be described thus: Cystometrography (rats): bladder capacity after intraduodenal administration. It counts as in vivo. Particulars: female SD rats, urethane anesthesia, max of 0.5, 1, 2, 3 h, mean. As to the method: Cystometrography is a method for ascertaining the relation between intravesical pressure and bladder capacity and provides information on the time course of condition of the urinary bladder from urine filling to micturition, the possible involuntary contraction of the urinary bladder, and the contractility of the detrusor muscle during micturition.
The experiment was performed using 9 to 13-weeks old female SD rats in groups of 3-5. After a median incision was made in the abdominal region under urethane anesthesia, a polyethylene indwelling cannula was inserted into the urinary bladder dome through the apex of the urinary bladder and fixed. The other end of the cannula was connected to a T-tube for infusion of saline via one branch and changes in intravesical pressure were recorded via the other branch. When warmed saline was continuously infused into the urinary bladder at a constant rate, the urinary bladder was distended and, when the pressure reached a threshold, the urinary bladder underwent rapid contractions and at the same time a micturition was induced. This procedure was repeated until the volume of saline from the start of infusion to the threshold intravesical pressure (bladder capacity) became steady giving approximately constant values in at least two consecutive determinations. Then, the test compound was administered into the duodenum. The bladder capacity was measured immediately before administration of the test compound and 0.5, 1, 2, and 3 hours after administration. The maximum increase rate (%) in bladder capacity was calculated by means of the following equation.
Maximum increase rate in bladder capacity=[(A-B)/B]×100
where B represents the bladder capacity value immediately before administration of the test compound and A represents the maximum bladder capacity at 0.5, 1, 2, and 3 hours after administration of the test compound. The data shown are mean values.

In the case of `CCCOC(C(=O)OC1CCN(C)CC1)(c1ccccc1)c1ccccc1` [Propiverine, propiverine, reference compound], the “Maximum increase rate (%) in bladder capacity” value (“Maximum increase rate (%)” for short) (100 mg/kg) is 42.0%.
Regarding `Cc1c(-c2cccnc2)[nH]c(N)c1C#N` [compound 8, 2-Amino-3-cyano-4-methyl-5-(3-pyridyl)pyrrole], under “30 mg/kg”, the “Maximum increase rate (%)” value is on record as 55.4%.
For `N#Cc1cc(-c2ccc(F)cc2)[nH]c1N` [compound 41], the “Maximum increase rate (%)” value (10 mg/kg) was 38.8%.
For `Cc1c(-c2ccccc2F)[nH]c(N)c1C#N` [compound 1, 2-Amino-3-cyano-4-methyl-5-(2-fluorophenyl)pyrrole], the “Maximum increase rate (%)” value (3 mg/kg) amounted to 60.8%.
For the compound `Cc1c(-c2cc(F)ccc2F)[nH]c(N)c1C#N` [compound 63, 2-Amino-3-cyano-4-methyl-5-(2,5-difluorophenyl)pyrrole], the “Maximum increase rate (%)” value (3 mg/kg) is given as 49.9%.
With `N#Cc1cc(-c2ccccc2)[nH]c1N` [compound 15], the “Maximum increase rate (%)” value (10 mg/kg) was 53.8%.
On to `Cc1c(-c2ccccc2)[nH]c(N)c1C#N` [R1, 2-Amino-3-cyano-4-methyl-5-phenylpyrrole, reference compound], for which the “Maximum increase rate (%)” value (3 mg/kg) came to 63.6%.
